From paper PMC7993833, “EDP-938, a novel nucleoprotein inhibitor of respiratory syncytial virus, demonstrates potent antiviral activities in vitro and in a non-human primate model” (PLoS Pathogens, 2021)

What was measured:
RSV-B clinical isolates = test: Susceptibility of USA-derived RSV-B clinical isolates; format: cell-based; conditions: human respiratory syncytial virus
Experimental: (§1) Serial dilutions of the compound were added to cells infected with RSV-A isolates at an MOI of 0.1 (except for isolate 629-9-2 at an MOI of 0.01) or RSV-B isolates at an MOI of 0.5 (expect for isolate 629-24/2007 at an MOI of 0.0044) and were treated for 5 or 6 days, respectively. […] This is consistent with the fact that the viral N protein, which is the putative target of the antiviral effect of EDP-938, is the most conserved RSV protein [11].
(§2) HEp-2, Vero, and BHK were seeded at 8,000 cells per well (cpw) in growth medium (Dulbecco’s Modified Eagle Medium (DMEM) with 1% GlutaMAX, 1% Penicillin/Streptomycin (P/S), 1% Non-Essential Amino Acids (NEAA), 10% Fetal Bovine Serum (FBS)) or (Minimum Essential Medium (MEM) with 10% FBS, 1% NEAA, 1% P/S) or (Eagle’s Minimum Essential Medium with L-Glutamine, with 10% FBS, 1% P/S) respectively. A549 seeded at 3,000 cpw in F-12K Kaighn’s Modification nutrient mixture with 10% FBS, 1% NEAA, 1% P/S. Cells seeded at time of infection in 96-well plates, final well volume 100μL. Compounds suspended in DMSO, serially diluted and added to wells at 0.5% final DMSO concentration. […] Cytopathic effect (CPE) determined using ATPlite (Perkin Elmer) measured with Envision luminometer. […] All EC50s were calculated using the XLFit four-parameter logistic model 200 in Microsoft Excel. […]

RSV-A Long [1] = test: RT-qPCR viral load assay, RSV-A Long in HEp-2 cells; format: cell-based; conditions: human respiratory syncytial virus, HEp-2, RT-qPCR
HEK-293 cells = test: Cytotoxicity (ATPlite) in HEK-293 cells; format: cell-based, human; conditions: at up to 50 μM, 3 days
Experimental: (§3) HEp-2, A549, and CHO cells were seeded at 3,000 cpw in their respective growth medium. CHO growth medium used was RPMI medium 1640 with 10% FBS, 1% P/S, 1% GlutaMAX. HEK-293 cells seeded at 10,000 cpw in DMEM growth medium. Undifferentiated HBECs were seeded in collagen-coated 96-well plates at 7,500 cpw in appropriate growth medium. Compound added and incubated for 3 days (4 days for HBECs) as described above. Plates read with ATPlite and CC50 calculated as EC50s as described above. SI = CC50/EC50 within a cell line.

RSV-A2 [2] = test: CPE assay, RSV-A2 in HEp-2 cells; format: cell-based; conditions: human respiratory syncytial virus
Experimental: (§4) HEp-2, Vero, and BHK were seeded at 8,000 cells per well (cpw) in growth medium (Dulbecco’s Modified Eagle Medium (DMEM) with 1% GlutaMAX, 1% Penicillin/Streptomycin (P/S), 1% Non-Essential Amino Acids (NEAA), 10% Fetal Bovine Serum (FBS)) or (Minimum Essential Medium (MEM) with 10% FBS, 1% NEAA, 1% P/S) or (Eagle’s Minimum Essential Medium with L-Glutamine, with 10% FBS, 1% P/S) respectively. A549 seeded at 3,000 cpw in F-12K Kaighn’s Modification nutrient mixture with 10% FBS, 1% NEAA, 1% P/S. Cells seeded at time of infection in 96-well plates, final well volume 100μL. Compounds suspended in DMSO, serially diluted and added to wells at 0.5% final DMSO concentration. Viral stocks stabilized with 25% sucrose, previously titered using plaque assay, were added at desired MOI. Sucrose added to cells-only control wells to match percent added with virus. Unless otherwise noted, RSV-A strains were tested at 0.1 MOI and incubated for 5 days in a 37°C, 5% CO2 humidified incubator, and RSV-B at 0.5 MOI for 6 days. Cytopathic effect (CPE) determined using ATPlite (Perkin Elmer) measured with Envision luminometer. For RT-qPCR, RNA was extracted from whole well using Ambion RNAqueous-96 Automated Kit, and RT-qPCR run using Applied Biosystems TaqMan RNA-to-CT 1-Step Kit. […] All EC50s were calculated using the XLFit four-parameter logistic model 200 in Microsoft Excel.

RSV-B VR-955 = test: RT-qPCR assay, RSV-B VR-955 in HEp-2 cells; format: cell-based; conditions: human respiratory syncytial virus
Experimental: as §4

[3] = Cytotoxicity (ATPlite) in CHO cells; format: cell-based; conditions: Chinese hamster, read-out: half-maximal cytotoxic concentration (CC50)
Experimental: as §3

RSV-A clinical isolates = test: Susceptibility of USA-derived RSV-A clinical isolates; format: cell-based; conditions: human respiratory syncytial virus
Experimental: as §1, §2

[4] = tested on: RSV-A and RSV-B laboratory strains; test: RT-qPCR assay, RSV laboratory strains across primate cell lines; format: cell-based; conditions: human respiratory syncytial virus, in Primates, read-out: EC50 values, reduction in viral load by RT-qPCR (range over strains and cells)
Experimental: The activity of EDP-938 against both RSV-A and RSV-B was evaluated in vitro against multiple laboratory strains commonly used for antiviral screens in HEp-2 cells, human adenocarcinomic alveolar basal epithelial cells (A549), monkey kidney-derived cells (Vero), and Baby Hamster Kidney cells (BHK). Serial dilutions of the compound were added to cells infected with RSV-A at a MOI of 0.1 or RSV-B at an MOI of 0.5 and treated for 5 or 6 days, respectively.
HEp-2, Vero, and BHK were seeded at 8,000 cells per well (cpw) in growth medium (Dulbecco’s Modified Eagle Medium (DMEM) with 1% GlutaMAX, 1% Penicillin/Streptomycin (P/S), 1% Non-Essential Amino Acids (NEAA), 10% Fetal Bovine Serum (FBS)) or (Minimum Essential Medium (MEM) with 10% FBS, 1% NEAA, 1% P/S) or (Eagle’s Minimum Essential Medium with L-Glutamine, with 10% FBS, 1% P/S) respectively. A549 seeded at 3,000 cpw in F-12K Kaighn’s Modification nutrient mixture with 10% FBS, 1% NEAA, 1% P/S. Cells seeded at time of infection in 96-well plates, final well volume 100μL. Compounds suspended in DMSO, serially diluted and added to wells at 0.5% final DMSO concentration. […] Cytopathic effect (CPE) determined using ATPlite (Perkin Elmer) measured with Envision luminometer. […] All EC50s were calculated using the XLFit four-parameter logistic model 200 in Microsoft Excel.

RSV-A Long [5] = test: RT-qPCR assay, RSV-A Long in BHK cells; format: cell-based; conditions: human respiratory syncytial virus
RSV-A2 [6] = test: CPE assay, RSV-A2 in Vero cells; format: cell-based; conditions: human respiratory syncytial virus
Experimental: as §4

RSV-A Long [7] = test: RT-qPCR assay, RSV-A Long in primary neonatal lamb bronchial epithelial cells; format: cell-based; conditions: human respiratory syncytial virus, Epithelial cell
[8] = tested on: recombinant RSV A2-line19F, N protein mutants; test: microbe, parasite or virus in culture; conditions: human respiratory syncytial virus
HBEC = test: Cytotoxicity (ATPlite) in primary HBECs; format: cell-based, human
Experimental: as §3

A549 cells = test: Cytotoxicity (ATPlite) in A549 cells; format: cell-based, human; conditions: at up to 50 μM, 3 days
Experimental: as §3

O=C1Nc2ccccc2C(c2ccccc2)=N[C@@H]1Nc1nnc(-c2ncc(C(F)(F)F)cc2N2CCOCC2)o1 [EDP-938]
EC50 (RSV-B clinical isolates): 121 nM | EC50 (RSV-A Long [1]; 120 h, RSV-A Long MOI 0.1, 5 days, read-out: EC50): 89 ± 16 nM | EC90 (RSV-A Long [1]; RSV-A Long): 91 ± 62 nM | cytotoxicity (HEK-293 cells): no significant cytotoxicity | EC50 (RSV-A2 [2]): 28 ± 4 nM | EC90 (RSV-A2 [2]): 40 ± 3 nM | EC50 (RSV-B VR-955; 144 h, RSV-B VR-955 MOI 0.5, 6 days): 110 ± 22 nM | EC90 (RSV-B VR-955; RSV-B VR-955): 140 ± 24 nM | CC50 at 3 days [3]: ~27000 nM | EC50 (RSV-A clinical isolates): 76 nM | EC50 [4]: 54 to 110 nM | EC50 (RSV-A Long [5]): 16800 nM | EC50 (RSV-A2 [6]): 33 ± 7 nM | EC90 (RSV-A2 [6]): 44 ± 18 nM | EC50 (RSV-A Long [7]; 144 h, RSV-A Long MOI 0.1, 6 days): > 800 nM | EC90 (RSV-A Long [7]; RSV-A Long): > 800 nM | EC50 ([8]; HEp-2, recombinant RSV N K107N): 52 ± 6 nM | EC50 ([8]; HEp-2, recombinant RSV N K136R): 125 ± 20 nM | EC50 ([8]; HEp-2, recombinant RSV N L139I): 326 ± 83 nM | EC50 ([8]; HEp-2, recombinant RSV N M109I): 70 ± 26 nM | EC50 ([8]; HEp-2, recombinant RSV N M109K): 1220 nM | EC50 ([8]; HEp-2, recombinant RSV N M109K mutant): ~1200 nM | EC50 ([8]; HEp-2, recombinant RSV N M109T): 244 ± 61 nM | EC50 ([8]; HEp-2, recombinant RSV N N105D): 60 ± 44 nM | EC50 ([8]; HEp-2, recombinant RSV N S134T): 99 ± 26 nM | EC50 ([8]; HEp-2, recombinant RSV N V90A): 46 ± 29 nM | EC50 ([8]; HEp-2, recombinant RSV Wild-type (WT), HEp2): 45 ± 21 nM | selectivity index (HBEC; HBEC cells, SI = CC50/EC50 within a cell line): > 2,380 | cytotoxicity (HBEC; HBEC, at up to 50 μM, 4 days): no significant cytotoxicity | cytotoxicity (A549 cells): no significant cytotoxicity
